Data taken from PubChem BioAssay AID330 (DTP/NCI, 2004).
“And” between values parts separate entries of the source, which are not always exact repeats. Identical values can stand only once. Inconclusive results and toxic doses are left out. How the source made its calls: active means survival T/C of 150% or more; inactive means T/C below 125% in these data.

Test system: P388 leukemia ip, CD2F1 mice, survival T/C
Test: NCI In Vivo Anticancer Drug Screen. Data for tumor model P388 Leukemia (intraperitoneal) in CD2F1 (CDF1) mice
Conditions: endpoint: median survival time, higher = longer survival
Procedure, shortened: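 Mice carrying the transplanted tumor received test compound or vehicle. Survival was recorded in each group, and the value is the treated-group measurement divided by that of the vehicle-treated control group.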

[1] = dose: 12.5 mg/kg/injection, schedule: Q01DX009 (ip), vehicle: saline with Tween-80
[2] = dose: 12.5 mg/kg/injection, schedule: Q01DX009 (ip), vehicle: saline
[3] = dose: 25.0 mg/kg/injection, schedule: Q01DX009 (ip), vehicle: saline with Tween-80
[4] = dose: 25.0 mg/kg/injection, schedule: Q01DX009 (ip), vehicle: saline
[5] = dose: 50.0 mg/kg/injection, schedule: Q01DX009 (ip), vehicle: saline
[6] = dose: 6.25 mg/kg/injection, schedule: Q01DX009 (ip), vehicle: saline with Tween-80
[7] = dose: 6.25 mg/kg/injection, schedule: Q01DX009 (ip), vehicle: saline
[8] = dose: 50.0 mg/kg/injection, schedule: Q01DX009 (ip), vehicle: Klucel (hydroxypropylcellulose) (HPC)
[9] = dose: 100.0 mg/kg/injection, schedule: Q01DX009 (ip), vehicle: Klucel (hydroxypropylcellulose) (HPC)
[10] = dose: 200.0 mg/kg/injection, schedule: Q01DX009 (ip), vehicle: Klucel (hydroxypropylcellulose) (HPC)
[11] = dose: 50.0 mg/kg/injection, schedule: Q01DX009 (ip), vehicle: saline with Tween-80
[12] = dose: 100.0 mg/kg/injection, schedule: Q01DX009 (ip), vehicle: saline with Tween-80

Measured: T/C

CN(C)c1ncnc2c1ncn2C1OC(CO)C(N)C1O (centres undefined)
active: dose: 75.0 mg/kg/injection, schedule: Q01DX009 (ip), vehicle: saline sonified 163 % of control
inactive: [1] 104 % of control | [2] 118 % of control | [3] 113 % of control | [4] 119 % of control | [5] 117 % of control | dose: 100.0 mg/kg/injection, schedule: Q04DX003 (ip), vehicle: saline sonified 119 % of control | dose: 200.0 mg/kg/injection, schedule: Q04DX003 (ip), vehicle: saline sonified 109 % of control | dose: 400.0 mg/kg/injection, schedule: Q04DX003 (ip), vehicle: saline sonified 95 % of control

Nc1ccc(C(=O)NO)cc1
inactive: dose: 25.0 mg/kg/injection, schedule: Q01DX009 (ip), vehicle: suspension in saline 99 % of control | dose: 50.0 mg/kg/injection, schedule: Q01DX009 (ip), vehicle: suspension in saline 99 % of control | dose: 100.0 mg/kg/injection, schedule: Q01DX009 (ip), vehicle: suspension in saline 96 % of control | dose: 200.0 mg/kg/injection, schedule: Q01DX009 (ip), vehicle: suspension in saline 109 % of control

CCOC(=O)NC1CCC2(C)CCCCC2C1 (centres undefined)
inactive: [5] 100 % of control | dose: 100.0 mg/kg/injection, schedule: Q01DX009 (ip), vehicle: saline 97 % of control | dose: 200.0 mg/kg/injection, schedule: Q01DX009 (ip), vehicle: saline 109 % of control

COC(=S)C(=S)OC
inactive: [1] 108 % of control | [3] 108 % of control

O=C1c2cccc(NCCNCCO)c2C(=O)c2cccc(Cl)c21
inactive: dose: 5.0 mg/kg/injection, schedule: Q01DX009 (ip), vehicle: acid diluted with saline 98 % of control | dose: 10.0 mg/kg/injection, schedule: Q01DX009 (ip), vehicle: acid diluted with saline 113 % of control | dose: 20.0 mg/kg/injection, schedule: Q01DX009 (ip), vehicle: acid diluted with saline 115 % of control | dose: 40.0 mg/kg/injection, schedule: Q01DX009 (ip), vehicle: acid diluted with saline 113 % of control | dose: 80.0 mg/kg/injection, schedule: Q01DX009 (ip), vehicle: acid diluted with saline 124 % of control | dose: 160.0 mg/kg/injection, schedule: Q01DX009 (ip), vehicle: acid diluted with saline 120 % of control

COC(=O)/C(C1=C(Br)C(=O)C(C)=C(Br)C1=O)=C1/CCCN1
inactive: dose: 9.37 mg/kg/injection, schedule: Q01DX005 (ip), vehicle: Klucel (hydroxypropylcellulose) (HPC) 112 % of control | dose: 9.37 mg/kg/injection, schedule: Q04DX002 (ip), vehicle: Klucel (hydroxypropylcellulose) (HPC) 101 % of control | dose: 18.75 mg/kg/injection, schedule: Q01DX005 (ip), vehicle: Klucel (hydroxypropylcellulose) (HPC) 117 % of control | dose: 18.75 mg/kg/injection, schedule: Q04DX002 (ip), vehicle: Klucel (hydroxypropylcellulose) (HPC) 92 % of control | dose: 37.5 mg/kg/injection, schedule: Q01DX005 (ip), vehicle: Klucel (hydroxypropylcellulose) (HPC) 112 % of control | dose: 37.5 mg/kg/injection, schedule: Q04DX002 (ip), vehicle: Klucel (hydroxypropylcellulose) (HPC) 100 % of control | dose: 75.0 mg/kg/injection, schedule: Q04DX002 (ip), vehicle: Klucel (hydroxypropylcellulose) (HPC) 104 % of control

CN1CCC2CC(=O)NC1(C)C2(C)C (centres undefined)
inactive: dose: 100.0 mg/kg/injection, schedule: Q01DX001 (ip), vehicle: saline 104 % of control | dose: 200.0 mg/kg/injection, schedule: Q01DX001 (ip), vehicle: saline 106 % of control | dose: 400.0 mg/kg/injection, schedule: Q01DX001 (ip), vehicle: saline 106 % of control

CCCCCC(C[N+](C)(C)C)C(=O)/C=C/c1ccc(Cl)c(Cl)c1 (centres undefined)
inactive: dose: 3.12 mg/kg/injection, schedule: Q01DX009 (ip), vehicle: saline with Tween-80 105 % of control | [6] 120 % of control | [7] 114 % of control | [1] 101 % of control | [2] 114 % of control and 124 % of control | [3] 111 % of control | [4] 110 % of control

C/C(=N\NC(=S)N1CCCCC1)c1ccccn1
inactive: [6] 98 % of control | [1] 100 % of control

CCCCCCCC/C=C/CCCCCCCC(=O)NCCCN (tested in a mixture with another compound)
inactive: dose: 25.0 mg/kg/injection, schedule: Q04DX002 (ip), vehicle: saline 104 % of control | dose: 50.0 mg/kg/injection, schedule: Q04DX002 (ip), vehicle: saline 103 % of control

BrC/C(=N\N=C(\CBr)c1ccc(Br)cc1)c1ccc(Br)cc1
inactive: [8] 100 % of control | [9] 100 % of control | [10] 91 % of control

C(=C\c1cc2ccc(C3=NCCN3)cc2[nH]1)/c1ccc2cc(C3=NCCN3)[nH]c2c1
inactive: dose: 12.5 mg/kg/injection, schedule: Q01DX005 (ip), vehicle: Klucel (hydroxypropylcellulose) (HPC) 105 % of control | dose: 25.0 mg/kg/injection, schedule: Q01DX005 (ip), vehicle: Klucel (hydroxypropylcellulose) (HPC) 110 % of control | dose: 50.0 mg/kg/injection, schedule: Q01DX005 (ip), vehicle: Klucel (hydroxypropylcellulose) (HPC) 108 % of control and 110 % of control

Cc1ccc(S(=O)(=O)OCCOc2ccc(-c3nc4ccccc4[nH]3)cc2)cc1
inactive: dose: 100.0 mg/kg/injection, schedule: Q01DX001 (ip), vehicle: saline with Tween-80 92 % of control | dose: 200.0 mg/kg/injection, schedule: Q01DX001 (ip), vehicle: saline with Tween-80 90 % of control | dose: 400.0 mg/kg/injection, schedule: Q01DX001 (ip), vehicle: saline with Tween-80 101 % of control

COC(=O)c1[nH]c(=O)c2cccnc2c1O
inactive: [7] 104 % of control | [2] 100 % of control | [4] 92 % of control | [11] 103 % of control | [12] 98 % of control

CCN(CC)c1ccc(C(NCCC(C)C)C(Cl)(Cl)Cl)cc1 (centres undefined)
inactive: dose: 50.0 mg/kg/injection, schedule: Q01DX005 (ip), vehicle: saline 97 % of control | dose: 100.0 mg/kg/injection, schedule: Q01DX005 (ip), vehicle: saline 101 % of control | dose: 200.0 mg/kg/injection, schedule: Q01DX005 (ip), vehicle: saline 101 % of control

CCCCCCCCCCCCCCCCCC(=O)NC[n+]1ccccc1
inactive: dose: 50.0 mg/kg/injection, schedule: Q04DX002 (ip), vehicle: Klucel (hydroxypropylcellulose) (HPC) 96 % of control | dose: 100.0 mg/kg/injection, schedule: Q04DX002 (ip), vehicle: Klucel (hydroxypropylcellulose) (HPC) 87 % of control | dose: 200.0 mg/kg/injection, schedule: Q04DX002 (ip), vehicle: Klucel (hydroxypropylcellulose) (HPC) 91 % of control

COc1ccc(-c2sc(-c3ccccc3)nc2O)cc1
inactive: [11] 89 % of control | [12] 89 % of control | dose: 200.0 mg/kg/injection, schedule: Q01DX009 (ip), vehicle: saline with Tween-80 92 % of control

CCCCCCCCN1CSC(=S)N(c2ccc3[nH]c(=S)sc3c2)C1
inactive: dose: 6.25 mg/kg/injection, schedule: Q01DX009 (ip), vehicle: Klucel (hydroxypropylcellulose) (HPC) 94 % of control | dose: 12.5 mg/kg/injection, schedule: Q01DX009 (ip), vehicle: Klucel (hydroxypropylcellulose) (HPC) 106 % of control | dose: 25.0 mg/kg/injection, schedule: Q01DX009 (ip), vehicle: Klucel (hydroxypropylcellulose) (HPC) 94 % of control

Cc1nn(C(=O)c2ccncc2)c(C)c1N=Nc1ccc(S(=O)(=O)Nc2ncccn2)cc1
inactive: [8] 109 % of control | [9] 109 % of control | [10] 105 % of control

CCOC(=O)/[C](=N\N=P(N(C)C)(N(C)C)N(C)C)[Hg]/[C](=N/N=P(N(C)C)(N(C)C)N(C)C)C(=O)OCC
inactive: [7] 101 % of control and 94 % of control | [2] 99 % of control and 94 % of control | [4] 103 % of control and 108 % of control | [5] 106 % of control and 110 % of control

COC1=NC2=NC(OC)=NC3=C(Br)C=C(Br)C(=N1)N23
inactive: dose: 60.0 mg/kg/injection, schedule: Q01DX005 (ip), vehicle: Klucel (hydroxypropylcellulose) (HPC) 91 % of control | dose: 120.0 mg/kg/injection, schedule: Q01DX005 (ip), vehicle: Klucel (hydroxypropylcellulose) (HPC) 92 % of control | dose: 240.0 mg/kg/injection, schedule: Q01DX005 (ip), vehicle: Klucel (hydroxypropylcellulose) (HPC) 87 % of control

CC1=C2CC(C)(C)/C=C\C(=O)/C(C)=C\C3=CCCC3(O2)C1=O (centres undefined)
inactive: dose: 5.0 mg/kg/injection, schedule: Q01DX005 (ip), vehicle: Klucel (hydroxypropylcellulose) (HPC) 110 % of control | dose: 10.0 mg/kg/injection, schedule: Q01DX005 (ip), vehicle: Klucel (hydroxypropylcellulose) (HPC) 120 % of control | dose: 20.0 mg/kg/injection, schedule: Q01DX005 (ip), vehicle: Klucel (hydroxypropylcellulose) (HPC) 107 % of control
